Data as given in patent publication US20080261933A1, “COMBINATION OF PROGESTERONE-RECEPTOR ANTAGONIST TOGETHER WITH A LUTEIN-HORMONE-RELEASING HORMONE AGONIST AND ANTAGONIST FOR USE IN BRCA MEDIATED DISEASES” (priority 2007, published 2008).

Key:
tumor cells = test: Apoptosis of tumor cells
Description: Such other hormone-dependent diseases may include ovarian cancer, endometrial cancer, myeloma, myoma, lung cancer, meningioma, i.e., diseases which substantially originate or are influenced by the presence of hormone receptors and/or hormone-dependent pathways.

progesterone receptor [1] = biological target: T1, progesterone receptor (Homo sapiens, UniProt P06401); test: Endocrinological profile of the progesterone-receptor antagonist
T1 sequence (P06401 1-933): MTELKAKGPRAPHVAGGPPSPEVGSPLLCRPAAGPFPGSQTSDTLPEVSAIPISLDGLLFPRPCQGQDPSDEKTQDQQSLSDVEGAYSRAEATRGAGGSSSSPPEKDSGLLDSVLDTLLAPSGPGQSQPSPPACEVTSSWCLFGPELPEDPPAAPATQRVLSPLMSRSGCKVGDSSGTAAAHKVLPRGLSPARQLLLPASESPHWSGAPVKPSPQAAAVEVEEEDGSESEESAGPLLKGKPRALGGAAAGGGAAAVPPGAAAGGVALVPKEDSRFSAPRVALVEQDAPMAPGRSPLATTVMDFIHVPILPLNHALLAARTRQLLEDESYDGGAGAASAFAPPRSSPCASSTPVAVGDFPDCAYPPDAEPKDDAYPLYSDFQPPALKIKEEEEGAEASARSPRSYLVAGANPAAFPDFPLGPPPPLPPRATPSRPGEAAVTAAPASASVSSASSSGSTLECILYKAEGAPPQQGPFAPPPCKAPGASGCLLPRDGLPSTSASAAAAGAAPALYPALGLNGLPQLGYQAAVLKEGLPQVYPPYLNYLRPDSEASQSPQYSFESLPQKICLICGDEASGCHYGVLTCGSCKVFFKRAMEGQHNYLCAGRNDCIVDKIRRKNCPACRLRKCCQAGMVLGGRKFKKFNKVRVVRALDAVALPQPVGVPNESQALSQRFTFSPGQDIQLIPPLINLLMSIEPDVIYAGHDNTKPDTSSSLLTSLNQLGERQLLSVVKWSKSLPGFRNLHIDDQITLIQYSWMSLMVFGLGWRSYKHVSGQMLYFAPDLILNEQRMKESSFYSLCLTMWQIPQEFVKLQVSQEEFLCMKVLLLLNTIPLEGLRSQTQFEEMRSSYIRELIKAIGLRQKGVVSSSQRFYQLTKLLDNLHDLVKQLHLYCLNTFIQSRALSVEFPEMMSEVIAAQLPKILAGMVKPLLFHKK
Description: has high antiprogestagenic activity with little or no other endocrinological effects (Fuhrmann, U. et al., J. Med. Chem. 2000, 43, 5010-5016).

progesterone receptor [2] = biological target: T1, progesterone receptor; conditions: Fuhrmann et al., J. Med. Chem. 2000; cited from earlier work
[3] = tested on: mammary tumors in Brca1/p53-deficient mice; conditions: mice with BRCA1- or BRCA2 inactivated in mammary glands; cited from earlier work
[4] = oral; cited from earlier work
glucocorticoid = conditions: causes severe side effects; cited from earlier work

## CC(=O)c1ccc([C@H]2C[C@@]3(C)[C@@H](CC[C@@]3(O)C(F)(F)C(F)(F)F)[C@@H]3CCC4=CC(=O)CCC4=C32)cc1 [ZK230211, 11β-(4-acetylphenyl)-17β-hydroxy-17α-(1,1,2,2,2-pentafluoroethyl)-estra-4,9-dien-3-one]
Tumor cells
  apoptosis of tumor cells: increased apoptosis
Progesterone receptor [1]
  endocrine side effects such as androgen, estrogen or antiglucocorticoid activity: only very weak or no
Progesterone receptor [2]
  antiprogestagenic activity: high
  other endocrinological effects: little or no

## CC#C[C@]1(O)CC[C@H]2[C@@H]3CCC4=CC(=O)CCC4=C3[C@@H](c3ccc(N(C)C)cc3)C[C@@]21C [mifepristone]
[3]
  development of mammary tumors: blocks the development of mammary tumors
[4]
  bioavailability when administered orally: poor
glucocorticoid
  anti-glucocorticoid activity: strong
